Data set [1] is described as follows: Itraconazole drug interaction study: safety/tolerability. It is filed as in vivo, human. The following applies: itraconazole treatment period, 3 of 11 subjects. The procedure: (§1) (iii) Study assessments. Blood samples for PK analysis of eravacycline and its metabolites, TP-498, TP-6208, and TP-034, were collected predose and 1, 2, 4, 6, 8, 12, 24, 36, and 48 h after the start of the i.v. infusion on day 1 and day 10 (itraconazole) or day 1 and day 17 (rifampin). Safety assessments included AEs, clinical laboratory safety tests (hematology, serum chemistry, electrolytes, coagulation, urinalysis, and lipid profile), vital signs, physical examinations, and 12-lead ECG.

Data set [2] is described as follows: Mass balance study: plasma PK of eravacycline, TP-498 and TP-6208 (LC-MS). The conditions noted are these: in vivo, iv. In kind it is in vivo, human. An excerpt: (ii) Study design. This was a single-center, open-label study of a single i.v. dose of [^14C]eravacycline to assess the mass balance recovery and PK of eravacycline. The primary objectives were to determine mass balance recovery, determine routes and rates of excretion, provide metabolite profiling and structural identification, and assess the PK of radioactivity in plasma and whole blood. Subjects were screened for inclusion in the study, including a detailed medical history, physical examination, and laboratory evaluations, in the 28 days before dosing. Eligible subjects were admitted to the clinical study unit at approximately 21:00 on the evening prior to study drug administration (day −1) and remained on site until 240 h postdose for collection of urine, feces, and blood samples. After an overnight fast, each subject received 60 mg [^14C]eravacycline containing not more than 3.8 MBq (105 μCi) ^14C as a single i.v. infusion over 60 min.
(vi) Study assessments. PK parameters were determined for total radioactivity in plasma and whole blood. Eravacycline, TP-498, and TP-6208 concentrations in plasma were quantified using a validated assay with internal standards. The following PK parameters were determined: Cmax, Tmax, time from dosing before the first quantifiable concentration in a concentration versus time profile (Tlag), AUC0–t, AUC0–24, AUC0–∞, the percentage of AUC0–∞ extrapolated beyond the time of the last measurable concentration (AUC%extrap), the slope of the apparent terminal phase (lambda-z), the apparent terminal half-life (t1/2), the mean residence time estimated between time zero and infinity (MRT0-∞), the apparent volume of plasma cleared of analyte per unit time (CL), and the volume of distribution of analyte at steady state (Vss).
Plasma concentrations of eravacycline, TP-498, and TP-6208 were measured by liquid chromatography with tandem mass spectrometry (LC-MS). The LLOQ was 5 ng/ml for eravacycline, TP-498, and TP-6208. The calibration ranges for eravacycline, TP-498, and TP-6208 in human urine were 50 to 10,000 ng/ml, 50 to 1,000 ng/ml, and 20 to 1,000 ng/ml, respectively. The calibration ranges for eravacycline, TP-498, and TP-6208 in human plasma were 5 to 500 ng/ml.
(viii) Study analysis. Descriptive statistics (mean, median, standard deviation [SD], percent coefficient of variation [%CV], minimum, maximum, number, geometric mean, and geometric %CV) were calculated for all concentration data. Pharmacokinetic parameters were calculated using Phoenix WinNonlin v6.3 (Certera USA, Inc.).

For data set [3] the following is noted: in vitro; previous studies, no reference given; cited from earlier work.
A short description of data set [4]: Drug interaction study with rifampin (CYP3A4 inducer): plasma PK of i.v. eravacycline and metabolites. In kind it is in vivo, human. The following applies: in vivo. The procedure:
Two single-center, open-label studies were conducted to evaluate the effects of itraconazole (CYP3A4 inhibitor) and rifampin (CYP3A4 inducer) on the pharmacokinetics of i.v. eravacycline in healthy subjects.
(ii) Study design. Each study included a 28-day screening period, a 13-day treatment period (19 days for rifampin), and an end-of-study visit 2 weeks after the last dose of study drug. […] For the itraconazole study, 200 mg oral itraconazole was administered q12h on day 8 and q24h on days 9 and 10. For the rifampin study, 600 mg oral rifampin was administered q24h from day 8 to day 17. All study treatments were administered in the fasting state.
as §1
Concentrations of eravacycline, TP-498, and TP-6208 in human plasma samples were measured by LC-tandem MS after solid-phase extraction over a calibration range of 5.00 to 500 ng/ml. The LLOQ for eravacycline, TP-498, TP-6208, and TP-034 in human plasma was 5.00 ng/ml. Samples with eravacycline initial concentrations above the upper limit of quantification (500 ng/ml) were diluted appropriately with control blank human plasma and reanalyzed. There was no interference seen when human plasma was fortified with eravacycline, TP-498, TP-6208, and either itraconazole or rifampin.
(iv) Pharmacokinetic analysis. PK assessments included Cmax, Tmax, AUC0–24, AUC0–t, t1/2, CL, and Vss. Actual sampling time was used for PK calculations. PK parameters were derived by noncompartmental analysis. Descriptive statistics were calculated for analyte concentrations at each evaluation time point and for all quantitative PK parameters of eravacycline, TP-498, TP-6208, and TP-034 for day 1 and day 10 (day 17 for rifampin). The effect of itraconazole or rifampin on the PK profile of i.v. eravacycline was evaluated by comparing log-transformed PK parameters (Cmax and AUC0–t) associated with the administration of study drug on day 1 and day 10 (itraconazole) or day 1 and day 17 (rifampin) using paired t tests. The ratio and 90% confidence interval (CI) were presented after back transformation to the original scale. Pharmacokinetic variables were calculated using WinNonlin Professional.

Details of data set [5]: species or system human. The conditions noted are these: human, in vivo. The procedure:
as §1

Structures are written as SMILES. Entries after “also recorded” stand apart in the source; their conditions may differ. Where two headings read alike, the source gives them in different places.

In the case of `CCC(C)n1ncn(-c2ccc(N3CCN(c4ccc(OCC5COC(Cn6cncn6)(c6ccc(Cl)cc6Cl)O5)cc4)CC3)cc2)c1=O` (centres unmarked) [itraconazole, reference compound], the “subjects who experienced an AE” value in data set [1] is 27.3%.
The Cmax is the peak of the concentration-time curve. For `CN(C)[C@@H]1C(=O)C(C(N)=O)=C(O)[C@@]2(O)C(=O)C3=C(O)c4c(O)c(N5C(=O)CN6CCCC65)cc(F)c4C[C@H]3C[C@@H]12` (some centres unmarked) [TP-6208], in data set [2] (human), the “AUC0–∞” value is on record as 1780 ± 26.9 (n = 2) h·ng/ml; the Cmax turned out to be 42.8 ± 28.9 ng/mL; the “geometric mean AUC0–t, fold lower than that of eravacycline” value came to 2.9 fold; the “geometric mean AUC0–∞, fold lower than that of eravacycline” value worked out at 2.5 fold. In data set [2] (human), the “geometric mean Cmax, fold lower than that of eravacycline” value came to 25.7 fold and the t1/2 is recorded as 18.8 ± 17.8 (n = 2) h. Besides, the “time postdose plasma concentrations were quantifiable” value in data set [2] lay within 49 to 73 h. Also, the antimicrobial activity result in data set [3] is “no in vitro antimicrobial activity; also recorded: None exhibit antimicrobial activity”.
Turning to `CN(C)[C@H]1C(O)=C(C(N)=O)C(=O)[C@@]2(O)C(O)=C3C(=O)c4c(O)c(NC(=O)CN5CCCC5)cc(F)c4C[C@H]3C[C@@H]12` [TP-498], in data set [2] (human), the CLR turned out to be 85.7 ± 35.5 mL/min; the Cmax is 20.4 ± 18.9 ng/mL; the “geometric mean AUC0–t, fold lower than that of eravacycline” value is 13.5 fold; the “geometric mean Cmax, fold lower than that of eravacycline” value is 53.9 fold. Besides, the “time postdose plasma concentrations were quantifiable” value in data set [2] fell in the range of 37 to 49 h. In addition, the “Mean Cmax and AUC0–24 when eravacycline was dosed with or without rifampin” value in data set [4] was “similar”. For the same compound, the antimicrobial activity result in data set [3] is given as “no in vitro antimicrobial activity; also recorded: None exhibit antimicrobial activity”.
For `CO[C@H]1/C=C/O[C@@]2(C)Oc3c(C)c(O)c4c(O)c(c(/C=N/N5CCN(C)CC5)c(O)c4c3C2=O)NC(=O)/C(C)=C\C=C\[C@H](C)[C@H](O)[C@@H](C)[C@@H](O)[C@@H](C)[C@H](OC(C)=O)[C@@H]1C` [rifampin, reference compound], in data set [5], the “subjects who experienced an AE” value was 8.3%.
